Patent US20190119282A1, “IMIDAZOPYRIDAZINES USEFUL AS INHIBITORS OF THE PAR-2 SIGNALING PATHWAY” (Vertex Pharmaceuticals Incorporated, priority 2013, published 2019)

Legend:
[1] = test system: Thrombin-stimulated Ca2+ response in HT-29 cells; assay: Ca FLIPR TETRA assay, ANTAGONIST mode, stimulation with 1 U/mL Thrombin; assay type: cell-based, human; details: Homo sapiens, HT-29 cells
Summary of the method: (§1)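 HT-29 cells in 1% FBS/McCoy's overnight, loaded with Calcium 5 dye; compounds added and read first for intrinsic Ca2+ activation, then incubated 30 min at r.t. Antagonism read on FLIPR Tetra after stimulation with final 8 μM SLIGKV, 3.1 U/mL trypsin, 1 U/mL thrombin or 0.6 μM UTP.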

[2] = In vivo rat pharmacokinetics (intravenous and oral); details: plasma; for clearance: intravenous 0.5 to 1 mg/kg, read-out: Clp; for Vd: intravenous, read-out: Vss; for bioavailability: oral by gavage; for half-life: read-out: T ½ (converted)
Method: Example 61: Protocol for Testing PAR2 Compounds In Vivo Rat Pharmacokinetics Experiments
Compounds delivered by intravenous route were formulated using a solution formulation consisting of 5% N-methylpyrrolidone 10% Vitamin E-TPGS and 85% water (v/v/) or a solution formulation consisting of 25% N-methylpyrrolidone 35% polyethylene glycol 400 and 40% water (v/v/). Intravenous formulations were administered by a bolus injection (over approximately 10 seconds) using a hypodermic needle attaches to a syringe (tail vein). The dose volume was varied from 1 to 2 mL/kg and the dose was varied from 0.5 to 1 mg/kg. Compounds delivered orally were formulated as a solution formulation consisting of 5% N-methylpyrrolidone 10% Vitamin E-TPGS and 85% water (v/v/) or as fine suspension using a cellulose derivative suspending agent with or without the addition of a wetting agent/surfactant. Milling of large particles was performed as needed to reduce particle size using focused electroacoustic milling, homogenization or low energy media milling. A spray-dried solid dispersion was prepared for key compounds using 1:1 combination with cellulose derivatives. Test compounds were administered orally by gavage using a gavage plastic needle attached to a syringe. The dose volume was varied from 5 to 10 mL/kg and the dose was varied from 1 to 600 mg/kg.
Rats were bled by venipuncture (jugular vein) and the samples were collected into tubes containing K3EDTA. The tubes were placed on wet ice until processed. The samples were centrifuged for approximately 10 minutes (at approximately 4° C.) within approximately 30 minutes of collection to prepare plasma or diluted in citrate buffer (1:3) and stored frozen (approximately −30° C.). Thawed plasma or whole blood samples were extracted by protein precipitation using an organic solvent followed by centrifugation. The supernatants were separated by high-performance liquid chromatography coupled to mass spectrometry detection. A calibration curve was prepared using reference standard compounds spiked into either blank plasma or whole blood matrices and extracted similarly to unknown samples. Pharmacokinetic parameters were calculated using non-compartmental analysis.

[3] = test system: UTP-stimulated Ca2+ response in HT-29 cells; assay: Ca FLIPR TETRA assay, ANTAGONIST mode, stimulation with 0.6 μM UTP; assay type: cell-based, human; details: Homo sapiens, HT-29 cells
Summary of the method: as §1

[4] = target: T1, PAR2 (HT-29 cells, SLIGKV activation) (Homo sapiens, UniProt P55085); assay: Ca FLIPR TETRA assay, ANTAGONIST mode, stimulation with 8 μM SLIGKV; assay type: cell-based; details: HT-29 cells
T1 construct: host or cells: HT-29 cells
T1 sequence (P55085 26-397): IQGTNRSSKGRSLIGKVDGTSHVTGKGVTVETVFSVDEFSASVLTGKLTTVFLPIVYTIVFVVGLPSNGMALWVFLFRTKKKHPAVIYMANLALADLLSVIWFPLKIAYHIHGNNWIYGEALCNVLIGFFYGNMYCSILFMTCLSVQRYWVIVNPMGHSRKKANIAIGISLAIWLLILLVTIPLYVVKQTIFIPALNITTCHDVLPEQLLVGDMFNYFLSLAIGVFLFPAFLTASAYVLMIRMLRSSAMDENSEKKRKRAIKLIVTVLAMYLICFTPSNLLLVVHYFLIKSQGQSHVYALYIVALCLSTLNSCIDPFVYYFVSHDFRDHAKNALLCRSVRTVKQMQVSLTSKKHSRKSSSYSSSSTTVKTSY
Summary of the method: as §1

[5] = target: T2, PAR2 (HT-29 cells, trypsin activation) (Homo sapiens, UniProt P55085); assay: Ca FLIPR TETRA assay, ANTAGONIST mode, stimulation with 3.1 U/mL trypsin; assay type: cell-based; details: HT-29 cells
T2 construct: host or cells: HT-29 cells
T2 sequence (P55085 26-397): T1 sequence (P55085 26-397)
Summary of the method: as §1

[6] = stimulation with 1 U/mL Thrombin
[7] = stimulation with 3.1 U/mL trypsin
[8] = antagonist mode, 1 U/mL Thrombin
[9] = antagonist mode, 3.1 U/mL trypsin

clearance [2] [mL/min/kg]	Vd [2] [L/kg]	bioavailability [2] [%]	half-life [2] [h]	IC50 [1, 8] [nM]	IC50 ([3]; antagonist mode, 0.6 μM UTP) [nM]	IC50 ([4]; antagonist mode, 8 μM SLIGKV) [nM]	IC50 [5, 9] [nM]	further results	SMILES
21.7	1.4	57	1.2	–	–	–	–	IC50 [1, 6]: > 5000 nM; IC50 ([3]; stimulation with 0.6 μM UTP): > 5000 nM; IC50 ([4]; stimulation with 8 μM SLIGKV): 9 nM; IC50 [5, 7]: 110 nM	Cc1cc(-c2ccc(F)cc2)nn2cc(C(=O)N3CCN(C(=O)[C@H](O)CC(C)(C)C)[C@@H](C)C3)nc12 [Compound I-9, (R)-1-((S)-4-(6-(4-Fluorophenyl)-8-methylimidazo[1,2-b]pyridazine-2-carbonyl)-2-methylpiperazin-1-yl)-2-hydroxy-4,4-dimethylpentan-1-one]
3.6	1.8	71	6.7	–	–	–	–	IC50 [1, 6]: > 50000 nM; IC50 ([3]; stimulation with 0.6 μM UTP): > 50000 nM; IC50 ([4]; stimulation with 8 μM SLIGKV): 240 nM; IC50 [5, 7]: 390 nM	CC1(C)C(=O)NCCN1C(=O)c1cn2nc(-c3ccc(F)cc3)cc(C3CCOCC3)c2n1 [Compound I-29, 4-[6-(4-fluorophenyl)-8-tetrahydropyran-4-yl-imidazo[1,2-b]pyridazine-2-carbonyl]-3,3-dimethyl-piperazin-2-one]
29.3	2.2	39	1.4	–	–	–	–	IC50 [1, 6]: > 50000 nM; IC50 ([3]; stimulation with 0.6 μM UTP): > 50000 nM; IC50 ([4]; stimulation with 8 μM SLIGKV): 17 nM; IC50 [5, 7]: 21 nM	CC(C)(O)C(=O)N1CCN(C(=O)c2cn3nc(-c4ccc(F)cc4)cc(C4(C)CC4)c3n2)C(C)(C)C1 [Compound I-32, 1-[4-[6-(4-fluorophenyl)-8-(1-methylcyclopropyl)imidazo[1,2-b]pyridazine-2-carbonyl]-3,3-dimethyl-piperazin-1-yl]-2-hydroxy-2-methyl-propan-1-one]
4.17	1.49	92	5.85	–	–	–	–	IC50 ([1]; antagonist mode, stimulation with 1 U/mL Thrombin): > 1000 nM; IC50 ([3]; antagonist mode, stimulation with 0.6 μM UTP): > 1000 nM; IC50 ([4]; antagonist mode, stimulation with 8 μM SLIGKV): 2.6 nM; IC50 ([5]; antagonist mode, stimulation with 3.1 U/mL trypsin): 6.7 nM	CC(C)c1cc(-c2ccc(C(F)(F)F)c(F)c2)nn2cc(C(=O)N3CCN(C(=O)C(C)(C)O)CC3(C)C)nc12 [Compound I-252]
–	–	–	–	> 1000	> 1000	125	193	–	CC(C)(C)c1cc(-c2ccc(F)cc2)nn2cc(C(=O)N3CN(C(C)(C)C)C(=O)C3(C)C)nc12 [Compound I-564]
–	–	–	–	> 1000	> 1000	43	42	–	CC(C)(C)c1cc(-c2ccc(F)cc2)nn2cc(C(=O)N3CN(Cc4ccccc4)C(=O)C3(C)C)nc12 [Compound I-565]
–	–	–	–	> 1000	> 1000	3	5.1	–	CC(C)(C)c1cc(-c2ccc(F)cc2)nn2cc(C(=O)N3CCN(C(=O)CCC#N)CC3(C)C)nc12 [Compound I-566]
–	–	–	–	> 1000	> 1000	23	49.8	–	CC1(C)C(=O)NCCN1C(=O)c1cn2nc(-c3ccc(F)cc3)cc(-c3ccsc3)c2n1 [Compound I-567, 4-(6-(4-fluorophenyl)-8-(thiophen-3-yl)imidazo[1,2-b]pyridazine-2-carbonyl)-3,3-dimethylpiperazin-2-one]
–	–	–	–	> 1000	> 1000	520	620	–	CC1(C)C(=O)NCCN1C(=O)c1cn2nc(-c3ccc(F)cc3)cc(-c3cccnc3)c2n1 [Compound I-568]
–	–	–	–	> 1000	> 1000	395	640	–	CC1(C)C(=O)NCCN1C(=O)c1cn2nc(-c3ccc(F)cc3)cc(-c3ccncc3)c2n1 [Compound I-569]
–	–	–	–	> 1000	> 1000	1.6	2.2	–	CC(C)(C)c1cc(-c2ccc(Cl)cc2)nn2cc(C(=O)N3CCN(C(=O)[C@H]4C[C@H](C(=O)O)C4)CC3(C)C)nc12 [Compound I-570]
–	–	–	–	980	> 1000	1.1	3.3	–	CC(C)(CC(=O)O)C(=O)N1CCN(C(=O)c2cn3nc(-c4ccc(F)cc4)cc(C(C)(C)C)c3n2)C(C)(C)C1 [Compound I-571]
